# Experimental data: patent publication US20250339531A1, “DUX4 POLYPEPTIDES AND NUCLEIC ACIDS FOR TREATING INFLAMMATORY AND AUTOIMMUNE CONDITIONS” (Fred Hutchinson Cancer Center, priority 2021, published 2025)
# Entries after “also recorded” stand apart in the source; their conditions may differ.
# Legend:
# [1] = tested on: IFIH1, DDX58, cGAS and Type-1 IFN pathways; experiment: ISG induction by IFNβ, poly(I:C), RIG-I ligand or cGAMP, RT-qPCR in MB135-iDUX4 cells; type: cell-based, human; conditions: MB135iDUX4 cells ± doxycycline
# Experimental: All myoblast experiments were conducted in immortalized MB135 or MB200 myoblast cell lines (isolated from a control or FSHD2 subject, respectively cultured in Ham's F-10 Nutrient Mix (Gibco) supplemented with 15% fetal bovine serum (Hyclone), 100 U/100 μg/ml penicillin/streptomycin (Gibco), 1 μM dexamethasone (Sigma), and 10 ng/ml recombinant human basic fibroblast growth factor (PeproTech). To differentiate the myoblasts to myotubes, media was changed to DMEM supplemented with 10 μg/ml insulin (Sigma) and 10 μg/ml transferrin (Sigma). Cell lines containing doxycycline-inducible transgenes were additionally cultured with 2 μg/mL puromycin (Sigma). Transgenes were induced with 1 μg/mL of doxycycline (Sigma) for 4 hours prior to other treatments for a total of 20 hrs. The Kitra-SRS cells (RRID:CVCL_YI69) were provided by Dr. H. Otani and Osaka University (Nakai et al., 2019) and were cultured in DMEM supplemented with 10% fetal bovine serum (Hyclone) and 100 U/100 μg/ml penicillin/streptomycin (Gibco). Biological replicates consisted of independent but parallel experiments, such as simultaneously stimulating three cell culture plates with IFNγ. Technical replicates consisted of repeat measurements of the same biological sample, such as loading the same biological sample in triplicate for analysis by RT-qPCR. […]
# [2] = tested on: STAT1 binding to ISG promoters (GBP1, IDO1, CXCL10); experiment: STAT1 chromatin immunoprecipitation (ChIP-qPCR) at ISG promoters; type: cell-based, human; conditions: MB135-iDUX4-CTD cells, IFNG ± doxycycline
# Experimental: Chromatin immunoprecipitation (ChIP) was performed as previously described (Nelson et al 2006) with the following modifications: Cells were plated and allowed to grow to 70-80% confluence. Pelleted nuclei were sonicated on a Diagenode Biruptor on “Low” for 10 min as 30 sec on/30 sec off, followed by 6 rounds of sonication on “High” for 10 min each as 30 sec on/30 sec off (70 minutes total sonication) in IP Buffer+0.5% SDS. For immunoprecipitation, 500 ng of chromatin was set aside per condition as an “Input” and 4 μg of antibody was added to 10 μg of chromatin in an equal volume of IP Buffer+0.5% SDS across samples. IP Buffer (150 mM NaCl, 50 mM Tris-HCl pH 7.4, 5 mM EDTA, 1% Triton X-100, 0.5% NP-40, +Roche complete mini protease inhibitor EDTA-free) was added to lower the percentage of SDS <0.1%, and tubes were incubated with rotation overnight at 4° C. During this time, protein-A agarose Fastflow beads (Millipore) were washed twice with IP Buffer and then blocked in IP Buffer containing 2% BSA by rotating overnight at 4° C. After clearing the chromatin as described, beads were aliquoted to fresh tubes and the top 90% of chromatin was transferred to the tubes containing the blocked bead slurry. Tubes were rotated for 1 hour at 4° C. […]
Substance,"suppression of ISG induction by innate immune stimuli (poly(I:C), short dsRNA/RIG-I ligand, cGAMP, IFNβ) [1]",STAT1 occupancy at ISG promoters [2]
DUX4: human DUX4 protein SEQ ID NO:3 expressed from doxycycline inducible codon altered transgene SEQ ID NO:2,"blunted the induction of these genes by each of the stimulated pathways; also recorded: substantially blunted the ISG induction to all treatments; also recorded: pathways that rely on IRFs and STATs are both blocked; also recorded: suppressed the induction of a subset of the panel of ISG genes induced by each ligand; also recorded: CXCL9 was induced by IFNβ, poly(I:C), and the RIG-I ligand but not suppressed by DUX4",–
"longCTD: 3×FLAG tag and nls in frame with carboxyterminal 271 amino acids of DUX4 (aa154-424), SEQ ID NOS: 8-9",–,diminished STAT1 occupancy at all three ISGs; also recorded: moderately decreases STAT1 occupancy at ISG promoters
